Among the data in article PMC6254837, “Investigating Biological Activity Spectrum for Novel Styrylquinazoline Analogues” (Molecules, 2009) are log k, MIC and IC50 values, retold here.

The nature of data set [1]: Lipophilicity HPLC determination (capacity factor k / calculated log k). The note with it: RP-HPLC, C18, MeOH/H2O 55:45, non-buffered, isocratic. In kind it is physicochemical. From the text: Some groups have used a C18 chromatographic column with methanol-water mobile phases to obtain log kw, i.e., the retention factor extrapolated to 0% organic modifier, as an alternative to log P [50]. The log kw is obtained by performing several measurements with various ratios of water/organic solvent. Nevertheless determination of log kw has some disadvantages in that it is time consuming due to the various measurements that need to be undertaken before calculation of log kw. The main reason for the measurement is that it is more convenient to perform a systematic study of log k of various heteroaromatic compounds using mobile phases containing around 50% methanol due to various intramolecular interactions between heteroatoms and substituents. Therefore this study was performed using methanol/water (55:45) as the mobile phase. The conditions (non-buffered mobile phase) were chosen with respect to conditions of biological evaluations, which are performed mostly under neutral conditions (pH ~ 7). The lipophilicity data can be strongly influenced by intramolecular interactions under the applied chromatographic conditions which were investigated in the paper. The HPLC separation module Waters Alliance 2695 XE and Waters Photodiode Array Detector 2996 (Waters Corp., Milford, MA, U.S.A.) were used. The chromatographic column Symmetry® C18 5 μm, 4.6 × 250 mm, Part No. WAT054275, (Waters Corp., Milford, MA, U.S.A.) was used. The HPLC separation process was monitored by Millennium32® Chromatography Manager Software, Waters 2004 (Waters Corp.). The mixture of MeOH p.a. (55.0%) and H2O-HPLC – Mili-Q Grade (45.0%) was used as a mobile phase. The total flow of the column was 0.9 mL/min, injection 30 μL, column temperature 30 °C and sample temperature 10 °C. The detection wavelength 210 nm was chosen. The KI methanolic solution was used for the dead time (tD) determination. Retention times (tR) were measured in minutes. The capacity factors k were calculated using the Millennium32® Chromatography Manager Software according to formula k = (tR - tD)/tD, where tR is the retention time of the solute, whereas tD denotes the dead time obtained via an unretained analyte.

The subject of a further data set is M. smegmatis MC2155. Nature of the data set: In vitro antimycobacterial evaluation (alamarBlue, 96 well plate). The class given is cell-based. The following applies: Mycolicibacterium smegmatis. In general terms: Alamar Blue is a resazurin reagent that responds to reducing activity.
Another data set has as its system M. absessus CIT21/06. The data set is described as above. The class given is cell-based. The following applies: read-out: MIC/IC90 M. absessus.
The test system of the next data set is M. kansasii CIT11/06. The data set is described as above. In kind it is cell-based. The following applies: Mycobacterium kansasii, CIT11/06, 120 h, read-out: MIC/IC90 M. kansasii.
The subject of data set [2] is Mycobacterium avium complex CIT19/06. Described as above. In kind it is cell-based. The note with it: 120 h, read-out: MIC/IC90 M. avium complex.
Data set [3] has as its system photosynthetic electron transport (PET) in spinach chloroplasts. Nature of the data set: Inhibition of photosynthetic electron transport (PET) in spinach chloroplasts, DCPIP photoreduction. The class given is biochemical, Spinacia oleracea L. The note with it: phosphate buffer pH 7.2, DMSO up to 4%. The procedure: Chloroplasts were prepared from spinach (Spinacia oleracea L.) according to Masarovicova and Kralova. The inhibition of photosynthetic electron transport (PET) in spinach chloroplasts was determined spectrophotometrically (Genesys 6, Thermo Scientific, U.S.A.) using an artificial electron acceptor 2,6-dichlorophenol-indophenol (DCIPP) according to Kralova et al. and the rate of photosynthetic electron transport was monitored as a photoreduction of DCPIP. The measurements were carried out in phosphate buffer (0.02 mol/L, pH 7.2) containing sucrose (0.4 mol/L), MgCl2 (0.005 mol/L) and NaCl (0.015 mol/L). The chlorophyll content was 30 mg/L in these experiments and the samples were irradiated (~100 W/m^2) from 10 cm distance with a halogen lamp (250 W) using a 4 cm water filter to prevent warming of the samples (suspension temperature 22 °C). The studied compounds were dissolved in DMSO due to their limited water solubility. […] The inhibitory efficiency of the studied compounds was expressed by IC50 values, i.e. by molar concentration of the compounds causing 50% decrease in the oxygen evolution rate relative to the untreated control.

For data set [4] the test system is unchanged. Also noted: method as in earlier work. The following applies: standard, read-out: PET inhibition IC50; cited from earlier work.
The mark [5] stands for this setting: MC2155, Middlebrook broth, 37 °C overnight, read-out: MIC/IC90 M. smegmatis.
The mark [6] stands for this setting: Middlebrook broth, 37 °C overnight.
Where [7] appears, read: Middlebrook broth, 37 °C five days.

Values after ≈ are worked out from the molar mass of the structure shown. Values joined by “and” are separate entries in the source; they are usually repeats but may differ in a detail not shown here. Identical values can stand only once. Like-named read-outs stand apart in the source and are kept apart here. Bounds are passed on as bounds.

As a reminder, the IC50 is the concentration that inhibits the measured activity by half.

`Cc1nc2ccccc2c(=O)[nH]1` [Compound 1, 2-Methylquinazolin-4(3H)-one]: the log k in data set [1] is recorded as 0.1170. The MIC was > 300 µg/mL in the data set with M. smegmatis MC2155 (MC2155, read-out: MIC/IC90 M. smegmatis); > 300 µg/mL in the data set with M. absessus CIT21/06; > 300 µg/mL in the data set on M. kansasii CIT11/06; > 300 µg/mL in data set [2].
Regarding `Cc1nc2ccccc2c(=O)n1CCO` [Compound 2, 3-(2-Hydroxyethyl)-2-methylquinazolin-4(3H)-one], the log k in data set [1] is 0.7047. In addition, half-maximal inhibition in data set [3] (IC50) required 362 µM. For the same molecule, the MIC (in the data set with M. smegmatis MC2155 (setting [5]); with M. absessus CIT21/06 (setting [6]); in the data set with M. kansasii CIT11/06 (setting [7]); in data set [2] (setting [7])) was > 300 µg/mL in each case.
Regarding `O=c1[nH]c(/C=C/c2ccccc2)nc2ccccc12` [Compound 3a, 2-(E)-Styrylquinazolin-4(3H)-one], in data set [1], the log k was 1.1148. Further, the MIC (in the data set with M. smegmatis MC2155 (setting [5]); in the data set on M. absessus CIT21/06 (setting [6]); in the data set with M. kansasii CIT11/06 (setting [7]); in data set [2] (setting [7])) was > 300 µg/mL throughout.
As to `COc1ccccc1/C=C/c1nc2ccccc2c(=O)[nH]1` [Compound 3b, 2-[(E)-2-(2-Methoxyphenyl)vinyl]quinazolin-4(3H)-one], in data set [1], the log k was 1.1509. Moreover, the MIC (with M. smegmatis MC2155 (setting [5]); in the data set with M. absessus CIT21/06 (setting [6]); in the data set on M. kansasii CIT11/06 (setting [7]); in data set [2] (setting [7])) was > 100 µg/mL throughout.
With `COc1cccc(/C=C/c2nc3ccccc3c(=O)[nH]2)c1` [Compound 3c, 2-[(E)-2-(3-Methoxyphenyl)vinyl]quinazolin-4(3H)-one], in data set [1], the log k is 1.1837. Moreover, the MIC (in the data set on M. smegmatis MC2155 (setting [5]); in the data set on M. absessus CIT21/06 (setting [6]); with M. kansasii CIT11/06 (setting [7]); in data set [2] (setting [7])) was > 100 µg/mL each time.
On to `COc1ccc(/C=C/c2nc3ccccc3c(=O)[nH]2)cc1` [Compound 3d, 2-[(E)-2-(4-Methoxyphenyl)vinyl]quinazolin-4(3H)-one], for which, in data set [1], the log k is given as 1.1351. The same molecule came in with an IC50 in data set [3] of 693 µM. The MIC (in the data set with M. smegmatis MC2155 (setting [5]); in the data set with M. absessus CIT21/06 (setting [6]); with M. kansasii CIT11/06 (setting [7]); in data set [2] (setting [7])) was > 100 µg/mL in each case.
Regarding `COc1ccc(/C=C/c2nc3ccccc3c(=O)[nH]2)c(OC)c1` [Compound 3e, 2-[(E)-2-(2,4-Dimethoxyphenyl)vinyl]quinazolin-4(3H)-one], the log k in data set [1] is on record as 1.1982. In data set [3], this molecule yielded an IC50 of 391 µM. The MIC with M. smegmatis MC2155 (setting [5]) is > 100 µg/mL; in the data set with M. absessus CIT21/06 (setting [6]), 80 µg/mL (≈ 259 µM); with M. kansasii CIT11/06 (setting [7]) it was 20 µg/mL (≈ 64.9 µM); in data set [2] (setting [7]), 80 µg/mL (≈ 259 µM).
Turning to `O=c1[nH]c(/C=C/c2cccc(Cl)c2)nc2ccccc12` [Compound 3f, 2-[(E)-2-(3-Chlorophenyl)vinyl]quinazolin-4(3H)-one], the log k in data set [1] is on record as 1.5059. In data set [3], this molecule displayed an IC50 of 1030 µM. Also, the MIC (with M. smegmatis MC2155 (setting [5]); in the data set with M. absessus CIT21/06 (setting [6]); in the data set on M. kansasii CIT11/06 (setting [7]); in data set [2] (setting [7])) was > 300 µg/mL each time.
Regarding `O=c1[nH]c(/C=C/c2ccccc2Br)nc2ccccc12` [Compound 3g, 2-[(E)-2-(2-Bromophenyl)vinyl]quinazolin-4(3H)-one], the log k in data set [1] was 1.4830. Also, the MIC (in the data set with M. smegmatis MC2155 (setting [5]); in the data set with M. absessus CIT21/06 (setting [6]); in the data set on M. kansasii CIT11/06 (setting [7]); in data set [2] (setting [7])) was > 100 µg/mL in each case.
Turning to `O=c1[nH]c(/C=C/c2cccc(Br)c2)nc2ccccc12` [Compound 3h, 2-[(E)-2-(3-Bromophenyl)vinyl]quinazolin-4(3H)-one], the log k in data set [1] was 1.5904. In addition, the IC50 in data set [3] was 561 µM. Further, the MIC (in the data set on M. smegmatis MC2155 (setting [5]); with M. absessus CIT21/06 (setting [6]); in the data set with M. kansasii CIT11/06 (setting [7]); in data set [2] (setting [7])) was > 100 µg/mL each time.
In the case of `O=c1[nH]c(/C=C/c2ccc(Br)cc2)nc2ccccc12` [Compound 3i, 2-[(E)-2-(4-Bromophenyl)vinyl]quinazolin-4(3H)-one], the log k in data set [1] is 1.5927. The IC50 in data set [3] stood at 665 µM. Further, the MIC (with M. smegmatis MC2155 (setting [5]); in the data set on M. absessus CIT21/06 (setting [6]); in the data set with M. kansasii CIT11/06 (setting [7]); in data set [2] (setting [7])) was > 100 µg/mL throughout.
For the molecule `O=Cc1ccc(/C=C/c2nc3ccccc3c(=O)[nH]2)cc1` [Compound 3j, 2-[(E)-2-(4-Carbaldehydephenyl)vinyl]quinazolin-4(3H)-one], the log k in data set [1] was 0.8005.
For the molecule `O=c1[nH]c(/C=C/c2ccc(O)c(O)c2O)nc2ccccc12` [Compound 3k, 2-[(E)-2-(2,3,4-Trihydroxyphenyl)vinyl]quinazolin-4(3H)-one], the log k in data set [1] is recorded as 0.5510.
Regarding `Clc1nc(/C=C/c2ccccc2)nc2ccccc12` [Compound 4a, 4-Chloro-2-(E)-styrylquinazoline], in data set [1], the log k is recorded as 1.1088. Further, 285 µM corresponded to half-maximal inhibition in data set [3] (IC50). Besides, the MIC (in the data set with M. smegmatis MC2155 (setting [5]); with M. absessus CIT21/06 (setting [6]); in the data set with M. kansasii CIT11/06 (setting [7]); in data set [2] (setting [7])) was > 100 µg/mL in each case.
As for `COc1ccccc1/C=C/c1nc(Cl)c2ccccc2n1` [Compound 4b, 4-Chloro-2-[(E)-2-(2-methoxyphenyl)vinyl]quinazoline], the log k in data set [1] is on record as 1.1497. Besides, the MIC in the data set with M. smegmatis MC2155 (setting [5]) is > 100 µg/mL; with M. absessus CIT21/06 (setting [6]), 80 µg/mL (≈ 270 µM); in the data set with M. kansasii CIT11/06 (setting [7]) it was 60 µg/mL (≈ 202 µM); in data set [2] (setting [7]), 80 µg/mL (≈ 270 µM).
Regarding `COc1cccc(/C=C/c2nc(Cl)c3ccccc3n2)c1` [Compound 4c, 4-Chloro-2-[(E)-2-(3-methoxyphenyl)vinyl]quinazoline], in data set [1], the log k is listed as 1.1827. Also, inhibition in data set [3] was half-maximal at 303 µM (IC50). Also, the MIC is > 100 µg/mL with M. smegmatis MC2155 (setting [5]), > 100 µg/mL in the data set with M. absessus CIT21/06 (setting [6]), 60 µg/mL (≈ 202 µM) with M. kansasii CIT11/06 (setting [7]) and > 100 µg/mL in data set [2] (setting [7]).
As to `COc1ccc(/C=C/c2nc(Cl)c3ccccc3n2)cc1` [Compound 4d, 4-Chloro-2-[(E)-2-(4-methoxyphenyl)vinyl]quinazoline], the log k in data set [1] is 1.1337. In data set [3], this molecule had a concentration for half-maximal inhibition (IC50) of 390 µM. Further, the MIC (with M. smegmatis MC2155 (setting [5]); with M. absessus CIT21/06 (setting [6]); in the data set on M. kansasii CIT11/06 (setting [7]); in data set [2] (setting [7])) was > 100 µg/mL throughout.
As to `COc1ccc(/C=C/c2nc(Cl)c3ccccc3n2)c(OC)c1` [Compound 4e, 4-Chloro-2-[(E)-2-(2,4-dimethoxyphenyl)vinyl]quinazoline], the log k in data set [1] was 1.1953. In data set [3], this molecule came in with an IC50 of 508 µM. For the same molecule, the MIC (in the data set with M. smegmatis MC2155 (setting [5]); in the data set on M. absessus CIT21/06 (setting [6]); with M. kansasii CIT11/06 (setting [7]); in data set [2] (setting [7])) was > 100 µg/mL each time.
On to `CN(C)C(=O)Nc1ccc(Cl)c(Cl)c1` [DCMU, 3-(3,4-dichlorophenyl)-1,1-dimethylurea], for which the IC50 in data set [4] is ~1.9 µM and 1.9 µM.
In the case of `NNC(=O)c1ccncc1` [INH, isoniazid, reference compound], the MIC in the data set on M. smegmatis MC2155 (setting [5]) is 39 µg/mL (≈ 284 µM); with M. absessus CIT21/06 (setting [6]) it was > 100 µg/mL; in the data set on M. kansasii CIT11/06 (setting [7]), < 10 µg/mL; in data set [2] (setting [7]) it was < 10 µg/mL.
